# Test results reported in ChEMBL document CHEMBL1201862, “PubChem BioAssay data set” (2004).
#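 All cell lines were grown in 96-well plates and treated with compound for 48 hours. Abbreviation: GI50, concentration required for 50% inhibition of growth.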 The source made the active and inactive calls. Cut-off read from the data, not from the text of the source: active = GI50 up to about 1.1 µM and inactive = higher.
# Tests used:
# Assay in all cases: inhibition of tumour cell growth, NCI panel, 48 h
# HCC 2998 = tested on: HCC 2998
# SN12C = tested on: SN12C
# LOX IMVI = tested on: LOX IMVI
# A498 = tested on: A498
# EKVX = tested on: EKVX
# CCRF-CEM = tested on: CCRF-CEM
# NCI-H522 = tested on: NCI-H522
# HL-60 = tested on: HL-60
# OVCAR-8 = tested on: OVCAR-8
# SR = tested on: SR
# Malme-3M = tested on: Malme-3M
# A549 = tested on: A549
# SK-MEL-2 = tested on: SK-MEL-2
# SF-539 = tested on: SF-539
# TK-10 = tested on: TK-10
# OVCAR-3 = tested on: OVCAR-3
# SF-268 = tested on: SF-268
# UACC-257 = tested on: UACC-257
# HOP-92 = tested on: HOP-92
Structure (SMILES),GI50 (HCC 2998),GI50 (SN12C),GI50 (LOX IMVI),GI50 (A498),GI50 (EKVX),GI50 (CCRF-CEM),GI50 (NCI-H522),GI50 (HL-60),GI50 (OVCAR-8),GI50 (SR),GI50 (Malme-3M),GI50 (A549),GI50 (SK-MEL-2),GI50 (SF-539),GI50 (TK-10),GI50 (OVCAR-3),GI50 (SF-268),GI50 (UACC-257),GI50 (HOP-92)
CC(=O)n1c2c(c(=O)n1-c1ccccc1)[S+]([O-])CCC2 (stereo unspecified),< 0.01 µM (active),> 91.4 µM (inactive),> 58.3 µM (inactive),> 100 µM (inactive),> 95.7 µM (inactive),7.5 µM (inactive),5.65 µM (inactive),24.4 µM (inactive),> 100 µM (inactive),4.53 µM (inactive),> 56.4 µM (inactive),> 92.9 µM (inactive),> 84.7 µM (inactive),20.4 µM (inactive),> 100 µM (inactive),57.1 µM (inactive),> 100 µM (inactive),46.7 µM (inactive),–
Cc1nc2ccccc2c(=O)n1/N=C(\N=N\c1ccccc1)c1ccccc1Cl,38.2 µM (inactive),32.4 µM (inactive),66.1 µM (inactive),20.6 µM (inactive),22.4 µM (inactive),26.7 µM (inactive),30.2 µM (inactive),33.3 µM (inactive),59.7 µM (inactive),–,53 µM (inactive),52.5 µM (inactive),20.7 µM (inactive),23.5 µM (inactive),38.9 µM (inactive),27 µM (inactive),39 µM (inactive),75 µM (inactive),25 µM (inactive)
CCCCCCCCCCCCCCC1OC(=O)c2ccccc21 (stereo unspecified),–,24.5 µM (inactive),86.1 µM (inactive),> 100 µM (inactive),39.9 µM (inactive),32.7 µM (inactive),–,15.6 µM (inactive),55.8 µM (inactive),42.5 µM (inactive),> 100 µM (inactive),60.3 µM (inactive),–,> 100 µM (inactive),> 100 µM (inactive),79.8 µM (inactive),> 100 µM (inactive),52.7 µM (inactive),–
N#Cc1c(-c2ccccc2)cc(-c2cccs2)c(C#N)c1N,> 100 µM (inactive),> 100 µM (inactive),> 100 µM (inactive),> 100 µM (inactive),> 100 µM (inactive),> 100 µM (inactive),> 100 µM (inactive),> 100 µM (inactive),> 100 µM (inactive),–,> 100 µM (inactive),> 100 µM (inactive),–,> 100 µM (inactive),> 100 µM (inactive),> 100 µM (inactive),> 100 µM (inactive),> 100 µM (inactive),> 100 µM (inactive)
COc1cc2c(cc1O)[C@H](C)C(c1ccc(OC)c(OC)c1)O2 (stereo partly specified),7.6 µM (inactive),–,4.13 µM (inactive),22.6 µM (inactive),17.5 µM (inactive),6.21 µM (inactive),9.23 µM (inactive),3.41 µM (inactive),13.2 µM (inactive),–,10.3 µM (inactive),7.24 µM (inactive),3.1 µM (inactive),4.85 µM (inactive),15.7 µM (inactive),5.66 µM (inactive),44.4 µM (inactive),10.9 µM (inactive),10.4 µM (inactive)
CCCCCCC1OC23OC1CCC2C(O)CCC3O (stereo unspecified),> 100 µM (inactive),> 100 µM (inactive),> 100 µM (inactive),> 100 µM (inactive),> 100 µM (inactive),–,> 100 µM (inactive),> 100 µM (inactive),> 100 µM (inactive),> 100 µM (inactive),> 100 µM (inactive),–,> 100 µM (inactive),> 100 µM (inactive),> 100 µM (inactive),> 100 µM (inactive),> 100 µM (inactive),> 100 µM (inactive),–
